# Assay results published in PubChem BioAssay (NCI).
# Values joined by “and” are separate entries in the source; they are usually repeats but may differ in a detail not shown here. Identical values can stand only once.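 Where inhibition never reached the appropriate level, the endpoint shown equals the highest concentration tested. Otherwise, values were interpolated linearly from a five-concentration, 48-hour dose response in 96-well plates. GI50 is the concentration that inhibits growth by half. TGI denotes the concentration required for complete inhibition of growth.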
# What was measured:
# Assay in all cases: inhibition of tumour cell growth, NCI panel, 48 h
# [1] = test system: CAKI-1 renal
# [2] = test system: HOP-62 NSCLC
# [3] = test system: HOP-92 NSCLC
# [4] = test system: HT29 colon
# [5] = test system: IGROV1 ovarian
# [6] = test system: KM12 colon
# [7] = test system: NCI-H226 lung
# [8] = test system: NCI-H460 lung
# [9] = test system: RPMI-8226 leukemia
# [10] = test system: SNB-19 CNS
Structure (SMILES),TGI [1],TGI [2],TGI [3],TGI [4],TGI [5],TGI [6],TGI [7],TGI [8],TGI [9],TGI [10],GI50 [1] [µM],GI50 [2] [µM],GI50 [3] [µM],GI50 [4] [µM],GI50 [6] [µM],GI50 [7] [µM],GI50 [8],GI50 [9] [µM],GI50 [10] [µM],GI50 [5] [µM]
O=C1CC(=O)n2cnc3cccc(c32)N1,> 100 µM,> 100 µM,> 100 µM,> 100 µM,> 100 µM,> 100 µM,> 100 µM,> 100 µM,> 100 µM,> 100 µM,,,,,,,,,,
C/C(=N\Nc1nc2cc(C(F)(F)F)ccc2s1)c1ccccn1,5.14 µM,13.7 µM,8.15 µM,1.81 µM,3.99 µM,9.03 µM,3.31 µM,22.3 µM,> 85.2 µM,13.3 µM,,,,,,,,,,
CC(C)(C)CC(C)(C)c1cc(O)c(O)c(CN2CCCCC2)c1,27.9 µM,30.1 µM,35 µM,19.7 µM,34.6 µM,40.4 µM,32 µM,24 µM,30.6 µM,28.8 µM,,,,,,,,,,
C=C=C(CC(CC(=C)Br)(C(=O)OC)C(=O)OC)S(=O)(=O)c1ccccc1,2.71 µM,12.4 µM,3.97 µM,2.95 µM,5.52 µM,5.81 µM,12.2 µM,20.7 µM,4.37 µM,24.9 µM,,,,,,,,,,
N#Cc1cc2c(n(C3OC(CO)C(O)C(O)C3O)c1=S)CCCCCC2 (stereo not drawn),> 100 µM,> 100 µM,> 100 µM,> 100 µM,> 100 µM,> 100 µM,> 100 µM,> 100 µM,> 100 µM,> 100 µM,,,,,,,,,,
CC1=C2C(=CO[C@H](C)[C@H]2C)C(=O)C(C(=O)O)=C1O,54.2 µM and 77.8 µM,44.2 µM and 79.3 µM,72.6 µM and 46.3 µM,63.9 µM and 88.9 µM,69.6 µM and 49.4 µM,87.5 µM and 48.8 µM,59.9 µM and 47.4 µM,> 90.1 µM and 149 µM,63.3 µM and 58.3 µM,55.6 µM and > 67.7 µM,16.6,29,16.1,18.3,19.2,18.4,30.1 µM and 73 µM,25.4,27.9,
O=C(CCN1CCN2c3ccccc3CCC2C1)c1ccc(F)cc1 (stereo not drawn),44.4 µM,52.8 µM,82.1 µM,41.7 µM,47.9 µM,> 100 µM,98.6 µM,> 100 µM,> 100 µM,47.5 µM,,,,,,,,,,
Nc1ccc(S(=O)(=O)Nc2nc3ccccc3nc2N2CCCCCC2)cc1,82.7 µM,52.6 µM,63.6 µM,> 100 µM,> 100 µM,> 100 µM,> 100 µM,61.2 µM,42.5 µM,> 100 µM,,,,,,,,,,
CC(Oc1ccccc1Cl)C(=O)NN1C(=O)CSC1c1ccccc1 (stereo not drawn),> 100 µM,> 100 µM,> 100 µM,> 100 µM,> 100 µM,> 100 µM,> 100 µM,> 100 µM,> 100 µM,> 100 µM,,,,,,,,,,
Cc1cc(OC(=O)NCn2cc(-c3ccccc3)nn2)ccc1Cl,> 100 µM,> 100 µM,> 100 µM,> 100 µM,> 100 µM,> 100 µM,> 100 µM,> 100 µM,> 100 µM,> 100 µM,,,,,,,,,,
Cc1cc2c([nH]c3ccccc32)c(O)c1-c1c(C)cc2c([nH]c3ccccc32)c1O,27.9 µM,31.5 µM,30.7 µM,19.5 µM,25.2 µM,21.7 µM,36.5 µM,16.7 µM,18.5 µM,32.2 µM,14.7,,,6.04,,,,3.85,,
Cc1nnc2n1N=C(c1ccc(Cl)cc1Cl)/C(=C/c1ccc(-c3ccc([N+](=O)[O-])cc3Cl)o1)S2,84.8 µM,> 100 µM,72.5 µM,> 100 µM,> 100 µM,> 100 µM,41.1 µM,> 100 µM,24.9 µM,> 100 µM,25.2,> 100,21.5,49.9,32.4,20.7,26 µM,10.2,> 100,27.5
O=c1[nH]n(Cc2ccccc2)c2ccc([N+](=O)[O-])cc12,> 100 µM,> 100 µM,> 100 µM,> 100 µM,> 100 µM,> 100 µM,> 100 µM,> 100 µM,> 100 µM,> 100 µM,,,,,,,,,,
COc1cc(C2c3cc4c(cc3C3OC[C@@H]2C3CO)OCO4)cc(OC)c1OC (stereo partly drawn),> 100 µM,> 100 µM,> 100 µM,> 100 µM,> 100 µM,> 100 µM,47 µM,47.8 µM,> 100 µM,> 100 µM,,47.4,,,,,,,,
COc1ccc(C(=O)CC(c2ccccc2)[C@H]2C(c3ccc(OC)cc3)=Nc3c(nc(SC)n(C)c3=O)NC2c2ccccc2)cc1 (stereo partly drawn),> 100 µM,> 100 µM,> 100 µM,> 100 µM,> 100 µM,> 100 µM,> 100 µM,> 100 µM,> 100 µM,> 100 µM,,,,,,,,,,
NN=C(CC(O)(C(F)(F)Cl)C(F)(F)Cl)CC(O)(C(F)(F)Cl)C(F)(F)Cl,> 10 µM,> 10 µM,> 10 µM,> 10 µM,> 10 µM,> 10 µM,> 10 µM,> 10 µM,> 10 µM,> 10 µM,,,,,,,,,,
C/C(=N\Nc1nc2ccccc2n1C)c1cc2ccccc2cn1,12.5 µM,> 26.3 µM,3.86 µM,3.54 µM,0.423 µM,16.9 µM,2.22 µM,7.05 µM,1.63 µM,14.6 µM,,,,,,,,,,
CN(C)Cc1cc(C(=O)/C=C/c2ccccc2)cc(CN(C)C)c1O,61.8 µM,> 100 µM,67.4 µM,41.4 µM,> 100 µM,33.8 µM,78.5 µM,44.8 µM,54.3 µM,> 100 µM,,,,,,,,,,
CCc1cc2c(c3c1CCCC3=O)CC1(Cc3ccc(C(=O)OC)cc3C1)C2 (stereo not drawn),> 100 µM,> 100 µM,> 100 µM,> 100 µM,> 100 µM,> 100 µM,> 100 µM,> 100 µM,91 µM,> 100 µM,,,,,,,,,,
CC(=O)NC1C(OCc2ccccc2)OC(CO)C(O)C1OC(C)C(=O)NC(C(=O)NC(CCC(=O)NCCCCNc1c2ccccc2nc2cccc([N+](=O)[O-])c12)C(N)=O)C(C)C (stereo not drawn),> 100 µM,11.7 µM,4.52 µM,8.71 µM,10.4 µM,7.68 µM,12.3 µM,9.93 µM,2.39 µM,34.5 µM,,,,,,,,,,
Cc1ccccc1-c1nc2c(C(=O)NCCN(C)C)cccc2[nH]1,> 100 µM,> 87.3 µM,85.1 µM,> 100 µM,> 100 µM,> 100 µM,48 µM,> 100 µM,73.4 µM,> 100 µM,,,,,,,,,,
COc1ccc2[nH]c(O)c(/C=c3/cc4c(c(-c5ccc(F)c(OC)c5)n3)=Nc3ccccc3-4)c2c1,36.9 µM,4.88 µM,6.62 µM,4 µM,17.6 µM,7.3 µM,33.1 µM,3.41 µM,5.53 µM,11.6 µM,18.2,2.42,1.5,2.03,2.58,16.4,1.78 µM,2.04,2.85,4.41
CC(C)/C(Cl)=N\OC(NC(=O)P(=O)(c1ccccc1)c1ccccc1)(C(F)(F)F)C(F)(F)F,46.3 µM,32.9 µM,12.8 µM,59.1 µM,28.4 µM,23.1 µM,38.4 µM,53.7 µM,37.5 µM,35.3 µM,,,,,,,,,,
Cn1c(=O)oc2nc(-c3ccccc3)cc(C(F)(F)F)c21,> 100 µM,> 100 µM,81 µM,> 100 µM,> 100 µM,> 100 µM,> 100 µM,> 100 µM,> 100 µM,> 100 µM,,,,,,,,,,
CCCCCCCCCCCCCCCCCCNc1nc(=O)n(C2CC(O)C(COP(=O)(O)O)O2)cc1F (stereo not drawn),> 100 µM,> 100 µM,> 100 µM,> 100 µM,> 100 µM,> 100 µM,> 100 µM,> 100 µM,> 100 µM,> 100 µM,,,,,,,,,,
O=C(c1cccs1)N1CCN(C(=O)c2cccs2)C1=S,15.3 µM,18.8 µM,20.7 µM,21 µM,19.6 µM,12.4 µM,34.7 µM,19.1 µM,> 19.7 µM,32.7 µM,,,,,,,,,,
Cc1c(C(=O)OCc2ccccc2)[n+](=O)c2cc(Cl)c(Cl)cc2n1[O-],28.2 µM,30.5 µM,20 µM,32.2 µM,19 µM,24.6 µM,20.1 µM,30.7 µM,21.2 µM,68.1 µM,,,,,,,,,,
COc1ccc(Nc2ccc3ccccc3c2-c2c(O)ccc3ccccc23)cc1,31.7 µM,25.1 µM,14.3 µM,29.6 µM,23 µM,29.5 µM,30.5 µM,30 µM,27.4 µM,37.2 µM,,,,,,,,,,
